From US20170362228A1, “TETRAHYDRO-PYRIDO[3,4-b]INDOLE ESTROGEN RECEPTOR MODULATORS AND USES THEREOF” (Genentech, Inc., priority 2016, published 2017)
Read-outs that look alike come from different tables or passages of the source.

How the values were obtained:
[1] = test system: MCF7 cells; test: In vitro cell proliferation assays (Examples 902 and 903), MCF7; assay type: cell-based; conditions: read-out: ER-alpha MCF7 HCS (EC50)
Method: Efficacy of estrogen receptor modulator compounds and chemotherapeutic compounds are measured by a cell proliferation assay employing the following protocol (Mendoza et al (2002) Cancer Res. 62:5485-5488).
The CellTiter-Glo® Luminescent Cell Viability Assay is a homogeneous method to determine the number of viable cells in culture based on quantitation of the ATP present, which signals the presence of metabolically active cells. The CellTiter-Glo® Assay is designed for use with multiwell plate formats, making it ideal for automated high-throughput screening (HTS), cell proliferation and cytotoxicity assays. The homogeneous assay procedure involves adding a single reagent (CellTiter-Glo® Reagent) directly to cells cultured in serum-supplemented medium. Cell washing, removal of medium or multiple pipetting steps are not required. The Cell Titer-Glo® Luminescent Cell Viability Assay, including reagents and protocol are commercially available (Promega Corp., Madison, Wis., Technical Bulletin TB288).
The assay assesses the ability of compounds to enter cells and inhibit cell proliferation. The assay principle is based on the determination of the number of viable cells present by quantitating the ATP present in a homogenous assay where addition of the Cell TiterGlo® reagent results in cell lysis and generation of a luminescent signal through the luciferase reaction. The luminescent signal is proportional to the amount of ATP present.
Procedure: Day 1—Seed Cell Plates (384-well black, clear bottom, microclear, TC plates with lid from Falcon #353962), Harvest cells, Seed cells at 1000 cells per 54 μl per well into 384 well Cell Plates for 3 days assay. Cell Culture Medium: RPMI or DMEM high glucose, 10% Fetal Bovine Serum, 2 mM L-Glutamine, P/S. Incubate 0/N (overnight) at 37° C., 5% CO2.
Day 2—Add Drug to Cells, Compound Dilution, DMSO Plates (serial 1:2 for 9 points). Add 20 μl of compound at 10 mM in the 2nd column of 96 well plate. Perform serial 1:2 across the plate (10 μl+20 μl 100% DMSO) for a total of 9 points using Precision Media Plates 96-well conical bottom polypropylene plates from Nunc (cat.#249946) (1:50 dilution). Add 147 μl of Media into all wells. Transfer 3 μl of DMSO+compound from each well in the DMSO Plate to each corresponding well on Media Plate using Rapidplate® (Caliper, a Perkin-Elmer Co.). For 2 drug combination studies, transfer one drug 1.5 μl of DMSO+compound from each well in the DMSO Plate to each corresponding well on Media Plate using Rapidplate. Then, transfer another drug 1.5 μl to the medium plate.
Drug Addition to Cells, Cell Plate (1:10 dilution): Add 6 μl of media+compound directly to cells (54 μl of media on the cells already). Incubate 3 days at 37° C., 5% CO2 in an incubator that will not be opened often.
Day 5—Develop Plates, Thaw Cell Titer Glo Buffer at room temperature: Remove Cell Plates from 37° C. and equilibrate to room temperature for about 30 minutes. Add Cell Titer-Glo® Buffer to Cell Titer-Glo® Substrate (bottle to bottle). Add 30 μl Cell Titer-Glo® Reagent (Promega cat.# G7572) to each well of cells. Place on plate shaker for about 30 minutes. Read luminescence on Analyst HT Plate Reader (half second per well).
Cell viability assays and combination assays: Cells were seeded at 1000-2000 cells/well in 384-well plates for 16 h. On day two, nine serial 1:2 compound dilutions were made in DMSO in a 96 well plate. The compounds were further diluted into growth media using a Rapidplate® robot (Zymark Corp., Hopkinton, Mass.). The diluted compounds were then added to quadruplicate wells in 384-well cell plates and incubated at 37° C. and 5% CO2. After 4 days, relative numbers of viable cells were measured by luminescence using Cell Titer-Glo® (Promega) according to the manufacturer's instructions and read on a Wallac Multilabel Reader® (PerkinElmer, Foster City). EC50 values were calculated using Prism® 4.0 software (GraphPad, San Diego). […]

[2] = target: T1, estrogen receptor alpha (ESR1) (Homo sapiens, UniProt P03372); test: Breast Cancer Cell ERa High Content Fluorescence Imaging Degradation Assay (Example 901); assay type: cell-based; conditions: Table 1a; MCF7 breast cancer cells, 4 hours; plateau of the maximal effect; DMSO and Fulvestrant define 0% and 100% changes in ESR1
T1 construct: endogenous in cells; host or cells: MCF7 breast cancer cells
T1 sequence (P03372 1-595): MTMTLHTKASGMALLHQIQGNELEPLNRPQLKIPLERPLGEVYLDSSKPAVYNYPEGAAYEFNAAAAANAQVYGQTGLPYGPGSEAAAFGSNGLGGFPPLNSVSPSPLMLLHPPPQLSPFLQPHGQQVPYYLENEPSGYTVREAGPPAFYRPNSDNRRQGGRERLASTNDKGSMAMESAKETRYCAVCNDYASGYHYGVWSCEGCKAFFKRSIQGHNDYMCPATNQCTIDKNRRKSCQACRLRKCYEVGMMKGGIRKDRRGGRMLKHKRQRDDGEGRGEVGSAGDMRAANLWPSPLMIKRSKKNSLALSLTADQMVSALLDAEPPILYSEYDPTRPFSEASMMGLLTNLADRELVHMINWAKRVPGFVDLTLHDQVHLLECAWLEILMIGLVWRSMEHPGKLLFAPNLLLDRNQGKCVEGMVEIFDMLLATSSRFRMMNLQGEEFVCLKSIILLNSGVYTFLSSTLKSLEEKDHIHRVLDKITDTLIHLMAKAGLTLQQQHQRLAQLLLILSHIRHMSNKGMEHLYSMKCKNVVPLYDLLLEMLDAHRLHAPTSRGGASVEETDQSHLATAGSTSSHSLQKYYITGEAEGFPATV
Method: MCF7 breast cancer cells were seeded on day 1 at a density of 10,000 cells per well in 384 well poly-lysine coated tissue culture plate (Greiner # T-3101-4), in 50 μL/well RPMI (phenol red free), 10% FBS (Charcoal stripped), containing L-glutamine. On day 2, compounds were prepared at 2 compound source concentrations: 100 μM and 1 μM (ultimately to give 2 overlapping titration curves), in a Labcyte low dead volume plate, 10 μL/well, and 10 μL of DMSO in designated wells for backfill, and 5 μM Fulvestrant (control compound) in designated wells. Compounds and controls were dispensed using a Labcyte Echo acoustic dispenser to dispense compounds with a predefined serial dilution (1.8×, 10 point, in duplicate) and appropriate backfill and control compounds (final total volume transferred was 417.5 nL and compound dispense volume ranges from 2.5 nL to 417.5 nL; 0.84% DMSO (v/v) final), ultimately producing a concentration range from 0.05 nM to 835 nM. Cell plates were incubated at 37° C., for 4 hours. Fixation and permeabilization were carried out using a Biotek EL406 plate washer and dispenser as follows. Cells were fixed by addition of 15 μL of 16% paraformaldehyde (Electron Microscopy Sciences #15710-S) directly to the 50 μL cell culture medium in each well using the peristaltic pump 5 μL cassette on a Biotek EL406 (final concentration of formaldehyde was 3.7% w/v). Samples were incubated 30 minutes. Well contents was aspirated and 50 μL/well of Phosphate Buffered Saline (PBS) containing 0.5% w/v bovine serum albumen, 0.5% v/v Triton X-100 (Antibody Dilution Buffer) was added to each well. Samples were incubated for 30 minutes. Well contents were aspirated and washed 3 times with 100 μL/well of PBS. Immunofluorescence staining of estrogen receptor alpha (ESR1) was carried out using a Biotek EL406 plate washer and dispenser as follows. The well supernatant was aspirated from the wells and 25 μL/well of anti-ESR1 mAb (F10) (Santa Cruz sc-8002) diluted 1:1000 in Antibody Dilution Buffer was dispensed. Samples were incubated for 2 hours at room temperature. Samples were washed 4 times with 100 μL/well of PBS. 25 uL/well of secondary antibody solution (Alexafluor 488 conjugate anti-mouse IgG (LifeTechnologies #A21202) diluted 1:1000 and Hoechst 33342 1 μg/ml diluted in Antibody Dilution Buffer) were dispensed into each well. Samples were incubated for 2 hours at room temperature. Samples were washed 3 times with 100 μL/well of PBS using a Biotek EL406. Quantitative fluorescence imaging of ESR1 was carried out using a Cellomics Arrayscan V (Thermo). Fluorescence images of the samples (Channel 1: XF53 Hoechst (DNA stain); Channel 2: XF53 FITC (ESR1 stain)) were acquired using a Cellomics VTI Arrayscan using the Bioapplication “Compartmental Analysis” using the auto-exposure (based on DMSO control wells) setting “peak target percentile” set to 25% target saturation for both channels. Channel 1 (DNA stain) was used to define the nuclear region (Circ). Measurements of “Mean_CircAvgIntCh2”, which is the Alexafluor 488 fluorescence intensity (ESR1) within the nuclear region, was measured on a per cell basis and averaged over all the measured cells. Data analysis was carried out using Genedata Screener Software, with DMSO and 5 nM Fulvestrant treated samples being used to define the 0% and 100% changes in ESR1. The “Robust Fit” method was used to define the inflexion point of curve (EC50) and the plateau of the maximal effect (Sinf). Degradation data for exemplary Formula I compounds is reported as ER-alpha MCF7 HCS Sinf(%) values in Table 1.

SMILES | EC50 ([1]; Homo sapiens, MCF7, Table 1a) [nM] | ER-alpha MCF7 HCS (S inf) [2] [%] | EC50 ([1]; Table 1a) [nM]
C[C@@H]1Cc2c([nH]c3ccccc23)[C@@H](c2c(F)cc(C(O)C3CN(CCCF)C3)cc2F)N1C[C@@](C)(F)CO (stereo partly drawn) [Compound 107, (2R)-3-((1R,3R)-1-(2,6-difluoro-4-((1-(3-fluoropropyl)azetidin-3-yl)(hydroxy)methyl)phenyl)-3-methyl-1,3,4,9-tetrahydro-2H-pyrido[3,4-b]indol-2-yl)-2-fluoro-2-methylpropan-1-ol] | 0.107 | −94.23 | –
C[C@@H]1Cc2c([nH]c3ccccc23)[C@@H](c2c(F)cc(C(O)C3CN(CCCF)C3)cc2F)N1C[C@](C)(F)CO (stereo partly drawn) [Compound 108, (2S)-3-((1R,3R)-1-(2,6-difluoro-4-((1-(3-fluoropropyl)azetidin-3-yl)(hydroxy)methyl)phenyl)-3-methyl-1,3,4,9-tetrahydro-2H-pyrido[3,4-b]indol-2-yl)-2-fluoro-2-methylpropan-1-ol] | 0.056 | −96.34 | –
C[C@@H]1Cc2c([nH]c3ccccc23)[C@@H](c2c(F)cc(C(O)C3CN(CCCF)C3)cc2F)N1CC(F)(F)F (stereo partly drawn) [Compound 109, (3,5-difluoro-4-((1R,3R)-3-methyl-2-(2,2,2-trifluoroethyl)-2,3,4,9-tetrahydro-1H-pyrido[3,4-b]indol-1-yl)phenyl)(1-(3-fluoropropyl)azetidin-3-yl)methanol] | 0.23 | −98.1 | –
C[C@@H]1Cc2c([nH]c3ccccc23)[C@@H](c2c(F)cc(C(O)C3CN(CCCF)C3)cc2F)N1CC(F)F (stereo partly drawn) [Compound 110] | 0.082 | −98.4 | –
C[C@@H]1Cc2c([nH]c3ccccc23)[C@@H](c2c(F)cc([C@H](O)C3CN(CCCF)C3)cc2F)N1CC(C)(C)F [Compound 111, (R)-(3,5-difluoro-4-((1R,3R)-2-(2-fluoro-2-methylpropyl)-3-methyl-2,3,4,9-tetrahydro-1H-pyrido[3,4-b]indol-1-yl)phenyl)(1-(3-fluoropropyl)azetidin-3-yl)methanol] | 0.066 | −95.97 | –
C[C@@H]1Cc2c([nH]c3ccccc23)[C@@H](c2c(F)cc([C@@H](O)C3CN(CCCF)C3)cc2F)N1CC(C)(C)F [Compound 112, (S)-(3,5-difluoro-4-((1R,3R)-2-(2-fluoro-2-methylpropyl)-3-methyl-2,3,4,9-tetrahydro-1H-pyrido[3,4-b]indol-1-yl)phenyl)(1-(3-fluoropropyl)azetidin-3-yl)methanol] | 0.05 | −99.15 | –
C[C@@H]1Cc2c([nH]c3ccc(F)cc23)[C@@H](c2c(F)cc(C(O)C3CN(CCCF)C3)cc2F)N1CC(C)(F)CO (stereo partly drawn) [Compound 113, 3-((1R,3R)-1-(2,6-difluoro-4-((1-(3-fluoropropyl)azetidin-3-yl)(hydroxy)methyl)phenyl)-6-fluoro-3-methyl-1,3,4,9-tetrahydro-2H-pyrido[3,4-b]indol-2-yl)-2-fluoro-2-methylpropan-1-ol] | – | −91.41 | 0.884
C[C@@H]1Cc2c([nH]c3ccccc23)[C@@H](c2ccc(C(O)C3CN(CCCF)C3)cc2F)N1CC(F)(F)CO (stereo partly drawn) [Compound 116, 2,2-difluoro-3-((1R,3R)-1-(2-fluoro-4-((1-(3-fluoropropyl)azetidin-3-yl)(hydroxy)methyl)phenyl)-3-methyl-1,3,4,9-tetrahydro-2H-pyrido[3,4-b]indol-2-yl)propan-1-ol] | 0.031 | −98.7 | –
C[C@@H]1Cc2c([nH]c3ccccc23)[C@@H](c2ccc(C(O)C3CN(CCCF)C3)cc2)N1CC(F)(F)CO (stereo partly drawn) [Compound 117, 2,2-difluoro-3-((1R,3R)-1-(4-((1-(3-fluoropropyl)azetidin-3-yl)(hydroxy)methyl)phenyl)-3-methyl-1,3,4,9-tetrahydro-2H-pyrido[3,4-b]indol-2-yl)propan-1-ol] | 0.066 | −100 | –
